The record followed here is US7576071B2, “Antithrombotic compound” (sanofi-aventis, priority 2004, dated 2009).

For the assay, the system named is human platelets (platelet rich plasma), ADP-induced aggregation. Nature of the assay: In vitro test for inhibition of human platelet aggregation induced by ADP. In kind it is cell-based. The conditions noted are these: 5 μM ADP; human PRP; mean of n experiments; entries marked b measured with a Chronolog aggregometer, others with micro plate reader; read-out: Inhibition of ADP-induced (5 μM) human platelet aggregation (IC50), mean. The text has this:
I.a. In vitro Test for Inhibition of Human Platelet Aggregation Induced by ADP
Addition of adenosine diphosphate (ADP) to human platelet rich plasma (PRP) in vitro induces platelet aggregation. This aggregation can be assessed by measuring the optical density (OD) of the PRP. The in vitro test described here was used to determine the inhibitory activity of a test compound on the ADP-induced aggregation of human platelets. A micro plate reader is used to measure the activity of several compounds simultaneously.
An alternative vehicle is 0.9% NaCl in MQ H2O. The compound solution (either in MQ H2O or 0.9% NaCl in MQ H2O) is further diluted in 0.9% NaCl in MQ H2O.
Free-flowing blood (at least 100 mL) is taken from a healthy volunteer and collected in 0.1 volume 3.8% sodium citrate. 2H2O in distilled H2O (w/v). The final concentration is 0.38% sodium citrate.
The citrated blood is centrifuged at 1,600 N/kg (160 g) at RT. After 15 min, centrifugation is discontinued with the brake turned off and the supernatant (=PRP) is collected. • 2. ADP (Kordia/Chrono-par # 384). Before use, a solution of 50 μM in 0.9% NaCl is prepared. Equipment • 1. Sysmex blood cell counter model KX-21. • 2. Labsystems iEMS reader MF with a 620 nm filter, an orbital shaker set at 1,000 rpm and a constant temperature of 37° C. Absorption is measured with the Labsystems iEMS program. • 3. Blood collection system 600 mL with needle, art P4203 (NPBI). • 4. 96 wells flat bottom micro plates (Greiner Labortechnik). Procedure
The platelets in the supernatant (PRP) are counted using a Sysmex blood cell counter and the supernatant is diluted with PPP to obtain a PRP containing 400,000±50,000 plt/μL. PRP should stabilize at RT for at least 20 min but not longer than 3 h.
150 μL PRP is pipetted into a well of the micro plate. 30 μL test compound in a range of concentrations (7 concentrations per compound) or vehicle is added and the micro plate is placed in the Labsystems iEMS reader MF at 37° C. The optical density (OD620) is then measured at 620 nm. After shaking for 2 min in the reader (1,000 rpm), the OD is measured for the second time. This is to verify the stability of the platelets (absence of spontaneous platelet aggregation). Then, 20 μL of 50 μM ADP solution is added and the OD is kinetically measured every min for 14 min at 620 nm (FIG. 1). Between two measurements, the plate is shaking for 40 seconds at 1,000 rpm. Each test compound is investigated in at least 2 experiments using PRP from different volunteers.
The mean OD at each compound concentration (including vehicle) is calculated at t=0 min and t=10 min. The percentage inhibition at each concentration is calculated using the formula: […]
The IC50 of the test compound is the concentration of the test compound at which the ADP-induced platelet aggregation is reduced by 50%. For this, the percentage inhibition values are plotted against compound concentration. Then, IC50, nH (Hill slope) and efficacy of the test compound is calculated using Graphpad Prism 3.0 (with variable slope).
Reference: Salmon, D. M. (1996) Thrombosis Research 84, 213-216.

The IC50 is the concentration needed to halve the response being measured. In the case of “Methyl O-2,3-di-O-methyl-4-O-<<12-N-<N-(3-keto-benzenesulfonyl)-4-O-{4-(4-piperidinyl)-butyl}-L-tyrosine>-12-aza-3,6,9-trioxa-dodecyl>>-6-O-sulfo-alpha-D-glucopyranosyl-(1->4)-O-2,3-di-O-methyl-beta-D-glucopyranuronosyl-(1->4)-O-2,3,6-tri-O-sulfo-alpha-D-glucopyranosyl-(1->4)-O-2,3-di-O-methyl-alpha-L-idopyranuronosyl-(1>4)-3-O-methyl-2,6-di-O-sulfo-alpha-D-glucopyranoside octakis sodium salt [XIV]”, the IC50 worked out at 0.63 µM.
